Measured values from the NIST ThermoML archive (doi:10.1016/j.jct.2009.07.018).
± gives the expanded uncertainty stated by the source.

Columns and labels:
[1] = Maximal bubble pressure
[2] = xn = mol fraction of the nth substance listed; conditions: Maximal bubble pressure

CCCCCCCCCC [decane]
[1]
Conditions | surface tension liquid-gas [mN/m]
293.15 K | 23.83 ± 0.26
303.15 K | 22.91 ± 0.26
313.15 K | 21.91 ± 0.25
323.15 K | 21.07 ± 0.25
333.15 K | 20.15 ± 0.25
343.15 K | 19.23 ± 0.24

CCCCCCC [heptane]
[1]
Conditions | surface tension liquid-gas [mN/m]
283.15 K | 21.11 ± 0.25
293.15 K | 20.12 ± 0.25
303.15 K | 19.13 ± 0.24
313.15 K | 18.11 ± 0.24
323.15 K | 17.15 ± 0.23

CCCCC [pentane]
[1]
Conditions | surface tension liquid-gas [mN/m]
293.15 K | 15.94 ± 0.23
298.15 K | 15.3 ± 0.22
305.15 K | 14.36 ± 0.22
318.15 K | 12.6 ± 0.21
323.15 K | 11.95 ± 0.21

CCCCC [pentane] + CCCCCCC
surface tension liquid-gas [mN/m], [2]
Conditions | x1 = 0.165 | x1 = 0.308 | x1 = 0.432 | x1 = 0.542 | x1 = 0.64 | x1 = 0.727 | x1 = 0.877 | x1 = 0.971
293.15 K | 19.62 ± 0.24 | 19.11 ± 0.24 | 18.6 ± 0.24 | 18.15 ± 0.24 | 17.71 ± 0.23 | 17.29 ± 0.23 | 16.65 ± 0.23 | 16.08 ± 0.23
298.15 K | 18.98 ± 0.24 | 18.5 ± 0.24 | 17.9 ± 0.24 | 17.35 ± 0.23 | 16.9 ± 0.23 | 16.48 ± 0.23 | 15.85 ± 0.23 | 15.29 ± 0.22
305.15 K | 18.16 ± 0.24 | 17.64 ± 0.23 | 17.13 ± 0.23 | 16.64 ± 0.23 | 16.17 ± 0.23 | 15.74 ± 0.23 | 14.97 ± 0.22 | 14.49 ± 0.22
318.15 K | 16.91 ± 0.23 | 16.24 ± 0.23 | 15.66 ± 0.23 | 15.1 ± 0.22 | 14.57 ± 0.22 | 14.08 ± 0.22 | 13.23 ± 0.22 | 12.7 ± 0.21
323.15 K | 16.33 ± 0.23 | 15.55 ± 0.23 | 14.88 ± 0.22 | 14.4 ± 0.22 | 13.93 ± 0.22 | 13.41 ± 0.22 | 12.6 ± 0.21 | 12.12 ± 0.21

O [water]
[1]
Conditions | surface tension liquid-gas [mN/m]
293.15 K | 72.84 ± 0.42
298.15 K | 72.03 ± 0.42
303.15 K | 71.24 ± 0.41
308.15 K | 70.44 ± 0.41
313.15 K | 69.61 ± 0.41
323.15 K | 67.96 ± 0.4
